Data published in a melting point compilation (Tetko et al.; mined from patent text by program, amines drawn as free bases though some values may be those of a salt).

melting point [°C]	SMILES
172	N#Cc1ccc2c(c1)CN1C(=Nc3cccnc3)SC[C@@H]1C2
163	CC(C)n1ncnc1COc1nn2c(-c3cc(F)ccc3F)nncc2c1C(C)(C)C
207 to 209	O=C1Cc2cc3c(cc2C(c2ccccc2Cl)N1)OCO3 (stereo unspecified)
198	CC(C)Cn1c(=O)n(C)c(=O)c2c(Sc3cccs3)c(Cn3cnc4ccccc43)sc21
140 to 142	O=C(O)C1Cc2ccccc2N1C(=O)CCS (stereo unspecified)
200 to 203	O=C(O)c1ccc(C(c2ccccc2)c2ccc(Cl)cc2)cn1 (stereo unspecified)
177 to 178	Cc1noc(C)c1C(=O)Nc1ccc(-n2ccc(C(F)(F)F)n2)cc1
252 to 253	CC(=O)NC1CN(C)S(=O)(=O)c2sc(S(N)(=O)=O)cc21 (stereo unspecified)
184 to 190	Cc1ccc(Nc2nc(-c3ccccn3)cs2)nc1
160 to 161	CS(=O)(=O)c1ccc(-c2cnn(CC(=O)c3ccc(OC(F)(F)F)cc3)c(=O)c2-c2ccc(F)cc2)cc1
128 to 130	COc1ccccc1N1CCN(CCCCOc2ccc(-c3cn4ccsc4n3)cc2)CC1
190	CN(C(=O)CCCCO/N=C(\c1ccccc1)c1ccc2c(c1)CN1CC(=O)NC1=N2)C1CCCCC1
197 to 198	CCOC(=O)c1cnn(-c2cccc(S(=O)(=O)N(C)C)n2)c1N
238 to 240	O=c1c(Cl)c(Cl)cnn1-c1cc(-c2ccnc(Nc3cccc(Cl)c3)n2)ccn1
102 to 104	CCN(c1nc(C)cc(C(=O)O)n1)c1ccc(C(C)C)cc1Br
106 to 107	NC(Cc1ccccc1)C(O)C(N)Cc1ccccc1 (stereo unspecified)
188 to 189	Cn1nc2c(N)nc3ccccc3c2c1CCCCCl
212 to 214	CC(=O)N(N)c1ccc(C(F)(F)F)cc1NC(=O)c1ccccc1

melting point [°C]	SMILES
312	N#Cc1c(N2CCN(C(=O)c3ccco3)CC2)c2cc(F)cnc2[nH]c1=O
243 to 244	O=C(O)c1ccc2c(c1)nc(-c1ccc(OCc3cc(Cl)ccc3-c3ccc(Cl)cc3)cc1)n2C1CCCCC1
131 to 134	CCOC(=O)C=Cc1c(C#N)cnn1-c1ccc(Cl)c(Cl)c1Cl
243 to 245	N#Cc1ccc(Cn2cncn2)c(-c2ccc(O)c(Cl)c2)c1
124 to 127	CC(C)(C)c1ccc(S(=O)(=O)Oc2ccc(C(C)(C)c3ccc(OS(=O)(=O)c4ccc(C(C)(C)C)cc4)cc3)cc2)cc1
175 to 180	CCC(C)C(S)C(=O)NC1(C(=O)NC(Cc2ccc(-c3ccco3)nc2)C(=O)O)CCCC1 (stereo unspecified)
176 to 178	Cc1ccc(N2CN(C)CNC2=S)cc1
110 to 120	Cc1noc(NS(=O)(=O)c2ccccc2-c2ccc(-c3ncco3)cc2CN(C(=O)C(C)C)C2CC2)c1C
151 to 152	CCCCOc1c(CNC(=O)OC(C)(C)C)n(CC2CC2)c(=O)c2ccc(C=O)cc12
> 300	CCOC(=O)c1ccc(C(=O)O)s1
127 to 128	CN(C)Cc1cccc(OCCCNc2nc(N=Cc3ccncc3)nn2C)c1
262	NS(=O)(=O)c1ccc(-c2cc(-c3nc(-c4ccc(C(F)(F)F)nc4)cc(C(F)(F)F)n3)ccn2)s1
93 to 95	Cn1ncc2c1CCC(=CO)C2=O
198 to 201	CS(=O)(=O)c1ccc(C2=C(c3ccc(-c4cccs4)cc3)C(=O)OC2)cc1
263 to 265	Oc1cc2c3ccc(O)c(O)c3n(Cc3c(Cl)cccc3Cl)c2cc1O
127	CCCn1c(=O)c2c(nc(/C=C/c3ccc(OC)c(OC)c3)n2C)n(CCC)c1=O
110 to 114	Cc1ccc([C@@H]2Sc3cc(COC(c4ccccc4)(c4ccccc4)c4ccccc4)ccc3N(CCN(C)C)C(=O)[C@@H]2O)cc1
120 to 126	COc1cc2c(cc1Nc1ncc(Cl)c(N[C@H]3[C@@H](C(N)=O)[C@@H]4C=C[C@H]3C4)n1)CCN(C[C@H](O)C(F)(F)F)CC2
